These results are taken from patent US8575111B2, “Pharmaceutical compositions and methods for treating erectile dysfunction” (Universidade Federal de Minas Garais-UFMG, priority 2007, dated 2013).

One data set has as its system erectile dysfunction. As to conditions: men with erectile dysfunction; cited from earlier work.
The nature of data set [1]: Absorption and biological stability after gavage in Wistar rats. It is filed as in vivo, rat. The following applies: Ang-(1-7) peptide alone, gavage 100 μg/50 μl. The procedure: Assays for determining absorption and biological stability of the Ang-(1-7)/HPβ-CD inclusion complex were made in aqueous solution. Twelve normal Wistar rats properly prepared were used to carry out the experiments. The animals were divided in 3 experimental groups and subjected to a gavage procedure with a salt solution (0.9%/50 μl) of Ang-(1-7) (100 μg/50 μl) and Ang-(1-7)/HPβ-CD (100 μg/50 μl). Four blood samples (1 ml, each) from the animals were collected. The first collection occurred before gavage procedure, and the remaining three 2, 6 and 24 hours post gavage.

The test system of another data set is erectile function of SHR. The data set is described as follows: Erectile function (CCP/MAP) of SHR chronically treated orally. It is filed as in vivo, rat. The following applies: chronic oral treatment, drug alone, 1.5 V. The method, then: Eight weeks post-treatment with Ang-(1-7)/HPβ-CD Inclusion Complex and/or Atenolol, the erectile function of the animals (SHR, spontaneously hypertensive rats) was evaluated. Particularly, erectile function of animals chronically treated with Atenolol was evaluated after concurrent administration with Ang-(1-7)/HPβ-CD Inclusion Complex. The drugs were orally administered via solutions containing them, alone or in combination. As a control, a group of animals was treated with HPβ-CD.
The procedure for inducing erection and intracavernosal pressure measurement was made as previously described (see, T. M. Mills, R. W. Lewis, V. S. Stopper, Biol Reprod 59, 1413 (December, 1998). Firstly, the animals (SHR) were anesthetized with intraperitoneal urethane (140 mg/kg) and placed on a thermal plate to maintain body temperature at 37° C. A polyethylene cannule was introduced into the animal trachea to keep respiratory patency. Following, the rat left femoral artery was cannulated with a polyethylene tube (PE-50) with heparinized saline (200 U/ml) for continuous monitoring of mean arterial pressure (MAP). The catheter was connected to a pressure transducer. The penial erection was obtained by applying electric stimulation on the major pelvic ganglion (MPG). […]

The test system of data set [2] is rat ganglionic-stimulated erectile response. Kind of data set: Ganglionic-stimulated changes in CCP/MAP after intracavernosal drug administration in anesthetized rats. Type of data set: in vivo. The method, then:
Normotensive and DOCA-salt hypertensive rats, Mas−/− and WT mice were anesthetized with intraperitoneal urethane (140 mg/Kg). The rat left femoral artery and mice […] was cannulated for continuous monitoring of mean arterial pressure (MAP). The shaft of the penis was freed of skin and fascia, and the right corpus cavernosum was cannulated by insertion of a 30-gauge needle connected to a pressure transducer, permitting continuous monitoring of corpus cavernosum pressure (CCP) as described elsewhere (see, e.g., T. M. Mills, et al., Biol Reprod 59, 1413 (December, 1998)). The rat left corpus cavernosum was cannulated with 30-gauge needles attached to 10-μL syringes via short lengths of polyethylene (PE)-10 tubing and used for administration of vasoactive drugs. The abdominal cavity was opened, exposing the right major pelvic ganglion (MPG), and silver bipolar electrodes were positioned on it. […]
In order to evaluate the role of the Ang-(1-7) released endogenously, it was first determined the minimal stimuli in which the maximal value of the CCP/MAP was achieved. […]
To evaluate the effect of Ang-(1-7) on ganglionic-stimulated CCP/MAP rise in the presence of NOS inhibition, a sub-maximal stimulus was determined and applied to the MPG. […] Thereafter, Ang-(1-7) was administered and sub-maximal stimulus was applied while CCP/MAP was continuously recorded.

A further data set deals with T1, AT1 (Homo sapiens, UniProt P30556).
T1 sequence (P30556 1-359): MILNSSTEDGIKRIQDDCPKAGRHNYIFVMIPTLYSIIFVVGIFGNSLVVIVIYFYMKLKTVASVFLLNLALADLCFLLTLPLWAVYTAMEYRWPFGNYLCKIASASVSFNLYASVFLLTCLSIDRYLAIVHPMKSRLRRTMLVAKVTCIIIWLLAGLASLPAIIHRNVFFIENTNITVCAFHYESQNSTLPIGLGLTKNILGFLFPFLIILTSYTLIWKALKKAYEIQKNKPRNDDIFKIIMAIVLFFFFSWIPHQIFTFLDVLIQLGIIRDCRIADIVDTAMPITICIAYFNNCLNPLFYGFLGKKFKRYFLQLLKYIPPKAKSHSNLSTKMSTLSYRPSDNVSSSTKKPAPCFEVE
As to conditions: receptor AT1; cited from earlier work.

For `CCCCC[C@H](O)/C=C/[C@H]1[C@H](O)CC(=O)[C@@H]1CCCCCCC(=O)O` [ALPROSTADIL®], in the data set with erectile dysfunction, the “patients in whom the treatment is effective” value is “over 80%”. As to `CC[C@H](C)[C@H](NC(=O)[C@H](Cc1ccc(O)cc1)NC(=O)[C@@H](NC(=O)[C@H](CCCNC(=N)N)NC(=O)[C@@H](N)CC(=O)O)C(C)C)C(=O)N[C@@H](Cc1c[nH]cn1)C(=O)N1CCC[C@H]1C(=O)O` [Ang-(1-7), Asp-Arg-Val-Tyr-Ile-His-Pro], the “increase of plasmatic peptide concentration relative to Ang-(1-7)/HPβ-CD” value in data set [1] is listed as “about 8 fold lower”. For the compound `CC(C)NCC(O)COc1ccc(CC(N)=O)cc1` (stereo not drawn) [Atenolol, atenolol], the “effect on intracavernosal pressure rise induced by stimulation of the major pelvic ganglion” value in the data set on erectile function of SHR is “reduced”. For the compound `COC(=O)[C@@H](N)CCCNC(=N)N[N+](=O)[O-]` [L-NAME, Nw-nitro-L-arginine methyl ester], the “CCP/MAP induced by submaximal stimulus” value in data set [2] (L-NAME 200 μg/Kg intracavernosal, mean±s.e.m., n=6, control 0.57±0.06, P<0.05) was 0.38±0.05. For the same compound, the “effect on baseline CCP or MAP” value in data set [2] (administration into left cavernosal sinuses) is reported as “did not alter”. On to “Des-Asp1-Ang I: angiotensin listed in Table 1, acting on AT1 (RVYIHPFHL; Angiotensin-1; UniProt P01019 26-34, looked up, fragment)”, for which, in the data set with AT1, the Actions result is given as “Inhibition of Ang II-induced cell”.
